US6713265B1 (Synaptic Pharmaceutical Corporation, priority 1999, dated 2004)

How the values were obtained:
[1] = tested on: NPY-induced feeding behavior; assay: NPY-induced food intake in satiated rats; type: in vivo, rat; settings: compound 30 mg/kg i.p. then 300 pmole NPY i.c.v., 4 hours, mean ± S.E.M.
Protocol: For these determinations food intake may be measured in normal satiated rats after intracerebroventricular application (i.c.v.) of NPY in the presence or absence of the test compound. Male Sprague Dawley rats (Ciba-Geigy AG, Sisseln, Switzerland) weighing between 180 g and 220 g are used for all experiments. The rats are individually housed in stainless steel cages and maintained on an 11:13 h light-dark cycle (lights off at 18:00 h) at a controlled temperature of 21-23° C. at all times. Water and food (NAFAG lab chow pellets NAFAG, Gossau, Switzerland) are available ad libidum.
Rats under pentobarbital anesthesia are stereotaxically implanted with a stainless steel guide cannula targeted at the right lateral ventricle. Stereotaxic coordinates, with the incisor bar set −2.0 mm below interaural line, are: −0.8 mm anterior and +1.3 mm lateral to bregma. The guide cannula is placed on the dura. Injection cannulas extend the guide cannulas −3.8 mm ventrally to the skull surface. Animals are allowed at least 4 days of recovery postoperatively before being used in the experiments. Cannula placement is checked postoperatively by testing all rats for their drinking response to a 50. ng intracerebroventricular (i.c.v.) injection of angiotensin II. Only rats which drink at least 2.5 ml of water within 30 min. after angiotensin II injection are used in the feeding studies.
All injections are made in the morning 2 hours after light onset. Peptides are injected in artificial cerebrospinal fluid (ACSF) in a volume of 5 μl. ACSF contains: NaCl 124 mM, KCl 3.75 mM, CaCl2 2.5 mM, MgSO4 2.0 mM, KH2PO4 0.22 mM, NaHCO3 26 mM and glucose 10 mM. Porcine-NPY (p-NPY) are dissolved in artificial cerebrospinal fluid (ACS). For i.c.v. injection the test compounds are preferably dissolved in DMSO/water (10%, v/v). The vehicle used for intraperitoneal (i.p.), subcutaneous (s.c.) or oral (p.o.) delivery of compounds is preferably water, physiological saline or DMSO/water (10% v/v), or cremophor/water (20% v/v), respectively.
Animals which are treated with both test compounds and porcine-NPY are treated first with the test compound.
Food intake may be measured by placing preweighed pellets into the cages at the time of NPY injection. Pellets are then removed from the cage subsequently at each selected time point and replaced with a new set of preweighed pellets. The food intake of animals treated with test compound may be calculated as a percentage of the food intake of control animals i.e., animals treated with vehicle. Alternatively, food intake for each group of animals subjected to a particular experimental condition may be expressed as the mean±S.E.M. Statistical analysis is performed by analysis of variance using the Student-Newman-Keuls test.
Food intake is reported as the mean±S.E.M. intake for a group of animals.

α2c = molecular target: T1, α2c (Homo sapiens, UniProt P18825); assay: Binding at cloned human α2c adrenergic receptor; settings: cloned human receptor
T1 sequence (P18825 1-462): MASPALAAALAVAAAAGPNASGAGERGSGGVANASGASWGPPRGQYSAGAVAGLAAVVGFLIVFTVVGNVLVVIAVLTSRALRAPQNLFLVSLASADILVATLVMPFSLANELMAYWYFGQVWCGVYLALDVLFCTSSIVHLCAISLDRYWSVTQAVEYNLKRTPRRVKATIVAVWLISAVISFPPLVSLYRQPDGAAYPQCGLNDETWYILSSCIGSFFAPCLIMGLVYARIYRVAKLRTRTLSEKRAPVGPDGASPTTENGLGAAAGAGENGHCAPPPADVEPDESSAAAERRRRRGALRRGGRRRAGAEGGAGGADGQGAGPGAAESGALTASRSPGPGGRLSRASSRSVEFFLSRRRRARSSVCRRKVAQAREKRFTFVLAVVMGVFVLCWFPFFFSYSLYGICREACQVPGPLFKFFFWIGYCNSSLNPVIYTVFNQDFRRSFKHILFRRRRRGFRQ

SMILES | Food intake, NPY + compound [1] [g] | pKi α2c (α2c)
Cl.O=S(=O)(NC[C@H]1CC[C@H](CNCC2CCc3ccccc3C2)CC1)c1cccc2ccccc12 (mixture of isomers) [Compound 19] | 1.5 ± 0.6 | –
Cl.O=[N+]([O-])c1ccccc1S(=O)(=O)NC[C@H]1CC[C@H](CNCC2CCc3ccccc3C2)CC1 (mixture of isomers) [Compound 20] | – | 7.39
Cl.Cl.Nc1ccccc1S(=O)(=O)NC[C@H]1CC[C@H](CNCC2CCc3ccccc3C2)CC1 (mixture of isomers) [Compound 22] | – | 7.15
